Laboratory results taken from ChEMBL document CHEMBL1123177, “1H NMR configurational correlation for retro-inverso dipeptides: application to the determination of the absolute configuration of "enkephalinase" inhibitors. Relationships between stereochemistry and enzyme recognition” (J Med Chem, 1986).

Each compound was assayed against Neprilysin (Oryctolagus cuniculus) (UniProt P08049) (assay: Concentration for 50% inhibition of activity of rabbit kidney enkephalinase).
Neprilysin (Oryctolagus cuniculus), sequence (P08049 whole entry, looked up): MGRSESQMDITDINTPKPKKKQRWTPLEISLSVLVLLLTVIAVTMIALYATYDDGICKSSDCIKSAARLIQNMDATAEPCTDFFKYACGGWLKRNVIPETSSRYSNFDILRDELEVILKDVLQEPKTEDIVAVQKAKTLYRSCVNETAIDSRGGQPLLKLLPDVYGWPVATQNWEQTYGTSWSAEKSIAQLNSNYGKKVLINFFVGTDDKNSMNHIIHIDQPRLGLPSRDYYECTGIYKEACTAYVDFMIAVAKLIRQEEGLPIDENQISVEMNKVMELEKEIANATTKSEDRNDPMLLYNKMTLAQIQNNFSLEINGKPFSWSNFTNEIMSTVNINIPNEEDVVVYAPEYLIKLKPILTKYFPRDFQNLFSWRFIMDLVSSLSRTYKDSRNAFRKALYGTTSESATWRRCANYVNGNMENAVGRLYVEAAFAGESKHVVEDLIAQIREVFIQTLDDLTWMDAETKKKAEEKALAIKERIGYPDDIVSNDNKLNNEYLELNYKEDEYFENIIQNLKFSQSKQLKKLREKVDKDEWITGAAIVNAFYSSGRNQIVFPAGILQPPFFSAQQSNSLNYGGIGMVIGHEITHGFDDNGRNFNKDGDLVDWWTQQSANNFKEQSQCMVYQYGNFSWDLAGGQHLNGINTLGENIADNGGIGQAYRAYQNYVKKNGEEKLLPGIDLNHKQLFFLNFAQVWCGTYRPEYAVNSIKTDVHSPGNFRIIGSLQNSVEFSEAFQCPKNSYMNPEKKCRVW

Going from `O=C(O)CC(=O)NC(CS)Cc1ccccc1` (single isomer, unassigned; 7b) to `C[C@H](C(=O)O)C(=O)N[C@H](CS)Cc1ccccc1`, the IC50 falls from 210 nM to 0.65 nM (320-fold).

Compared with `O=C(O)CC(=O)NC(CS)Cc1ccccc1` (single isomer, unassigned; 7a), `C[C@@H](C(=O)O)C(=O)N[C@H](CS)Cc1ccccc1` (racemic) is 4.3-fold lower in IC50: 2.3 nM for the first, 0.54 nM for the second.

First: CC(C)C[C@@H](C(=O)O)C(=O)N[C@H](CS)Cc1ccccc1 (racemic)
Second: CC(C)C[C@H](C(=O)O)C(=O)N[C@H](CS)Cc1ccccc1
The IC50 of the first is 2-fold higher: 1.5 nM for the first, 0.75 nM for the second. The second is the more potent here.
